Measurements from BindingDB's records for doi:10.1016/j.bmc.2006.12.019 (Berlex, 2007).

biological target: T1, Serine protease 1 (Bos taurus, UniProt P00760); test: Enzyme Inhibition Assay
T1 sequence (P00760 whole entry): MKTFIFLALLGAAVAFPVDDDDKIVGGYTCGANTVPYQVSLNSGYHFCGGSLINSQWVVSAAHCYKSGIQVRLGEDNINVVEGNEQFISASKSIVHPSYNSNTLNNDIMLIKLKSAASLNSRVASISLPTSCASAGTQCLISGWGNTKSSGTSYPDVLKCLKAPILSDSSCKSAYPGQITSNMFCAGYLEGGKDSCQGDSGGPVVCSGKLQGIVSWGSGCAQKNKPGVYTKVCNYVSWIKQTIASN
Experimental: The enzyme activities were determined kinetically as the initial rate of cleavage of a peptide p-nitroanilide. Km for enzyme and substrate was determined using four substrate dilutions. Enzyme was incubated with test compounds for 10 min; the reaction was then started by the addition of the substrate. […] IC50 values for inhibitors were determined from the dose response curve by fitting the data to the Hill equation. Ki,app values were calculated as the IC50/2, with the IC50 value determined at a substrate concentration equal to Km

Ki, > 5 µM:
O=C(O)CN1CCN(Cc2ccc3c(Cl)c(C(=O)Nc4ccc(Cl)cc4C(=O)Nc4ccc(Cl)cc4)sc3c2)CC1 [2-(4-{[3-chloro-2-({4-chloro-2-[(4-chlorophenyl)carbamoyl]phenyl}carbamoyl)-1-benzothiophen-6-yl]methyl}piperazin-1-yl)acetic acid]
O=C(Nc1ccc(Cl)cc1)c1cc(Cl)ccc1NC(=O)c1sc2ccccc2c1Cl [3-chloro-N-{4-chloro-2-[(4-chlorophenyl)carbamoyl]phenyl}-1-benzothiophene-2-carboxamide]
O=C(Nc1ccc(Cl)cc1)c1cc(Cl)ccc1NC(=O)c1scc(Cn2ccnn2)c1Cl [3-chloro-N-{4-chloro-2-[(4-chlorophenyl)carbamoyl]phenyl}-4-(1H-1,2,3-triazol-1-ylmethyl)thiophene-2-carboxamide]
O=C(Nc1ccc(Cl)cc1)c1cc(Cl)ccc1NC(=O)c1scc(Cn2cncn2)c1Cl [3-chloro-N-{4-chloro-2-[(4-chlorophenyl)carbamoyl]phenyl}-4-(1H-1,2,4-triazol-1-ylmethyl)thiophene-2-carboxamide]
O=C(Nc1ccc(Cl)cc1)c1cc(Cl)ccc1NC(=O)c1scc(Cn2ccnc2)c1Cl [3-chloro-N-{4-chloro-2-[(4-chlorophenyl)carbamoyl]phenyl}-4-(1H-imidazol-1-ylmethyl)thiophene-2-carboxamide]
O=C(Nc1ccc(Cl)cc1)c1cc(Cl)ccc1NC(=O)c1scc(Cn2cccn2)c1Cl [3-chloro-N-{4-chloro-2-[(4-chlorophenyl)carbamoyl]phenyl}-4-(1H-pyrazol-1-ylmethyl)thiophene-2-carboxamide]
O=C(Nc1ccc(Cl)cc1)c1cc(Cl)ccc1NC(=O)c1scc(Cn2ncnn2)c1Cl [3-chloro-N-{4-chloro-2-[(4-chlorophenyl)carbamoyl]phenyl}-4-(2H-1,2,3,4-tetrazol-2-ylmethyl)thiophene-2-carboxamide]
O=C(Nc1ccc(Cl)cc1)c1cc(Cl)ccc1NC(=O)c1scc(Cn2nccn2)c1Cl [3-chloro-N-{4-chloro-2-[(4-chlorophenyl)carbamoyl]phenyl}-4-(2H-1,2,3-triazol-2-ylmethyl)thiophene-2-carboxamide]
C[S+]([O-])Cc1csc(C(=O)Nc2ccc(Cl)cc2C(=O)Nc2ccc(Cl)cc2)c1Cl (stereo unspecified) [3-chloro-N-{4-chloro-2-[(4-chlorophenyl)carbamoyl]phenyl}-4-(methanesulfinylmethyl)thiophene-2-carboxamide]
CS(=O)(=O)Cc1csc(C(=O)Nc2ccc(Cl)cc2C(=O)Nc2ccc(Cl)cc2)c1Cl [3-chloro-N-{4-chloro-2-[(4-chlorophenyl)carbamoyl]phenyl}-4-(methanesulfonylmethyl)thiophene-2-carboxamide]
O=C(Nc1ccc(Cl)cc1)c1cc(Cl)ccc1NC(=O)c1scc(CN2CCOCC2)c1Cl [3-chloro-N-{4-chloro-2-[(4-chlorophenyl)carbamoyl]phenyl}-4-(morpholin-4-ylmethyl)thiophene-2-carboxamide]
O=C(Nc1ccc(Cl)cc1)c1cc(Cl)ccc1NC(=O)c1scc(CN2CCSCC2)c1Cl [3-chloro-N-{4-chloro-2-[(4-chlorophenyl)carbamoyl]phenyl}-4-(thiomorpholin-4-ylmethyl)thiophene-2-carboxamide]
CN(CCOCCO)Cc1csc(C(=O)Nc2ccc(Cl)cc2C(=O)Nc2ccc(Cl)cc2)c1Cl [3-chloro-N-{4-chloro-2-[(4-chlorophenyl)carbamoyl]phenyl}-4-({[2-(2-hydroxyethoxy)ethyl](methyl)amino}methyl)thiophene-2-carboxamide]
CCN(CC)CCN(C)Cc1csc(C(=O)Nc2ccc(Cl)cc2C(=O)Nc2ccc(Cl)cc2)c1Cl [3-chloro-N-{4-chloro-2-[(4-chlorophenyl)carbamoyl]phenyl}-4-({[2-(diethylamino)ethyl](methyl)amino}methyl)thiophene-2-carboxamide]
CN(C)CCN(C)Cc1csc(C(=O)Nc2ccc(Cl)cc2C(=O)Nc2ccc(Cl)cc2)c1Cl [3-chloro-N-{4-chloro-2-[(4-chlorophenyl)carbamoyl]phenyl}-4-({[2-(dimethylamino)ethyl](methyl)amino}methyl)thiophene-2-carboxamide]
CN(C)CCSCc1csc(C(=O)Nc2ccc(Cl)cc2C(=O)Nc2ccc(Cl)cc2)c1Cl [3-chloro-N-{4-chloro-2-[(4-chlorophenyl)carbamoyl]phenyl}-4-({[2-(dimethylamino)ethyl]sulfanyl}methyl)thiophene-2-carboxamide]
O=C(Nc1ccc(Cl)cc1)c1cc(Cl)ccc1NC(=O)c1scc(CNCCCn2ccnc2)c1Cl [3-chloro-N-{4-chloro-2-[(4-chlorophenyl)carbamoyl]phenyl}-4-({[3-(1H-imidazol-1-yl)propyl]amino}methyl)thiophene-2-carboxamide]
CN(C)CCCN(C)Cc1csc(C(=O)Nc2ccc(Cl)cc2C(=O)Nc2ccc(Cl)cc2)c1Cl [3-chloro-N-{4-chloro-2-[(4-chlorophenyl)carbamoyl]phenyl}-4-({[3-(dimethylamino)propyl](methyl)amino}methyl)thiophene-2-carboxamide]
CN(CCN1CCCC1)Cc1csc(C(=O)Nc2ccc(Cl)cc2C(=O)Nc2ccc(Cl)cc2)c1Cl [3-chloro-N-{4-chloro-2-[(4-chlorophenyl)carbamoyl]phenyl}-4-({methyl[2-(pyrrolidin-1-yl)ethyl]amino}methyl)thiophene-2-carboxamide]
O=C(Nc1ccc(Cl)cc1)c1cc(Cl)ccc1NC(=O)c1scc(COCC(O)CO)c1Cl (stereo unspecified) [3-chloro-N-{4-chloro-2-[(4-chlorophenyl)carbamoyl]phenyl}-4-[(2,3-dihydroxypropoxy)methyl]thiophene-2-carboxamide]
COCCOCc1csc(C(=O)Nc2ccc(Cl)cc2C(=O)Nc2ccc(Cl)cc2)c1Cl [3-chloro-N-{4-chloro-2-[(4-chlorophenyl)carbamoyl]phenyl}-4-[(2-methoxyethoxy)methyl]thiophene-2-carboxamide]
CC(=O)N1CCN(Cc2csc(C(=O)Nc3ccc(Cl)cc3C(=O)Nc3ccc(Cl)cc3)c2Cl)CC1 [3-chloro-N-{4-chloro-2-[(4-chlorophenyl)carbamoyl]phenyl}-4-[(4-acetylpiperazin-1-yl)methyl]thiophene-2-carboxamide]
CCN1CCN(Cc2csc(C(=O)Nc3ccc(Cl)cc3C(=O)Nc3ccc(Cl)cc3)c2Cl)CC1 [3-chloro-N-{4-chloro-2-[(4-chlorophenyl)carbamoyl]phenyl}-4-[(4-ethylpiperazin-1-yl)methyl]thiophene-2-carboxamide]
CSCc1csc(C(=O)Nc2ccc(Cl)cc2C(=O)Nc2ccc(Cl)cc2)c1Cl [3-chloro-N-{4-chloro-2-[(4-chlorophenyl)carbamoyl]phenyl}-4-[(methylsulfanyl)methyl]thiophene-2-carboxamide]
Cc1cccc2sc(C(=O)Nc3ccc(Cl)cc3C(=O)Nc3ccc(Cl)cc3)c(Cl)c12 [3-chloro-N-{4-chloro-2-[(4-chlorophenyl)carbamoyl]phenyl}-4-methyl-1-benzothiophene-2-carboxamide]
Cc1csc(C(=O)Nc2ccc(Cl)cc2C(=O)Nc2ccc(Cl)cc2)c1Cl [3-chloro-N-{4-chloro-2-[(4-chlorophenyl)carbamoyl]phenyl}-4-methylthiophene-2-carboxamide]
